Where a name gives a salt, the structure may show the parent alone. Read-outs that look alike come from different tables or passages of the source.
Tests used:
[1] = Phase solubility of amiodarone with substituted cyclodextrins; conditions: 5% dextrose, 0.9 mM citrate buffer, pH 3.8, room temperature (FIG. 4)
From the text: The actual percent of drug that is complexed will vary according to the complexation equilibrium constant characterizing the complexation of a specific cyclodextrin derivative to a specific drug and to the concentrations of the cyclodextrin derivative and drug available for complexation.
Phase solubility studies can also generate information as to the required amounts of a cyclodextrin needed to solubilize a drug under different conditions such as temperature, cyclodextrin type, or solution composition.

[2] = Ravin et al. 1975, cited from earlier work
[3] = cited from earlier work

| SBE7-β-CD required for 1.8 mg/mL amiodarone hydrochloride [1] | SMILES | Amiodarone concentration achievable ([2]; 25 °C) [mg/mL] | Amiodarone concentration achievable ([2]; 40 °C) [mg/mL] | Amiodarone concentration achievable ([2]; about 60 °C) [mg/mL] | Critical micellar concentration (CMC) ([3]; Ravin et al. 1975) | Critical micellar concentration (CMC) ([3]; at Krafft point of ~70 °C, Benedini et al. 2010) [mg/mL] |
| --- | --- | --- | --- | --- | --- | --- |
| about 6 mg/mL | CCCCc1oc2ccccc2c1C(=O)c1cc(I)c(OCCN(CC)CC)c(I)c1 [amiodarone hydrochloride] | – | – | – | – | – |
| – | CCCCc1oc2ccccc2c1C(=O)c1cc(I)c(OCCN(CC)CC)c(I)c1 [amiodarone] | 0.35 | 0.95 | > 13 | approximately 0.5 mg/mL | 1.69 |
